Results on eight compounds are retold here after patent publication US10343977B2, “Tetrahydro-isohumulone derivatives, methods of making and using” (KINDEX PHARMACEUTICALS, INC., priority 2012, dated 2019).

Common to all, as to type: cell-based
In test [1] the test system is LPS-mediated IL-6 production in THP-1 cells. Briefly: LPS-mediated IL-6 production in THP-1 cells. As to conditions: Homo sapiens; for inhibition at 12.5 µM: 12.5 μM test compound, THP-1 cells, LPS 1 μg/ml, NI = no inhibition. How it is done:
(§1) THIAA derivatives synthesized in Examples 1-19 were dissolved in dimethyl sufoxide (DMSO) and stored at −20° C. LPS was purchased from Sigma Chemicals (St. Louis, Miss.).
(§2) The effect of the THIAA derivatives on LPS-mediated MMP-9, IL-1β, ([…], MCP-1, RANTES, and MIP-1α was evaluated in THP-1 cells. Stimulation of THP-1 cells with LPS (1 μg/ml) activated the production of MMP-9, IL-1β, MCP-1, RANTES, and MIP-1α.
(§3) Results are summarized in Table 2, with data represented as % inhibition of inflammatory mediator production.

Test [2] concerns LPS-mediated nitric oxide (NO) production in RAW264.7 cells. As to the kind of experiment: LPS-mediated NO production in RAW264.7 murine macrophage model. As to conditions: Mus musculus, RAW264.7, 16 h, LPS 1 μg/ml; for inhibition at 12.5 µM: 12.5 μM test compound, NI = no inhibition. The protocol:
as §1
(§4) The effect of the THIAA derivatives on LPS-mediated prostaglandin E2 (PGE2) and nitric oxide (NO) production was evaluated in a RAW264.7 murine macrophage model. The RAW 264.7 cell line was purchased from ATCC (Manassas, Va.) and maintained according to their instructions. Cells were grown and subcultured in 96-well plates at a density of 8×10^4 cells per well, and reached 80-90% confluence the next day. THIAA derivatives were added to the cells in serum-free medium at a final concentration of 0.1% DMSO. Following one hour of incubation with the THIAA derivatives, LPS (1 μg/ml) or DMEM medium alone was added to the cells and incubation was continued for 6 hours. Stimulation of RAW 264.7 cells with LPS (1 μg/ml) for 6 hours activated the production of PGE2 and NO. Supernatant media was collected for measurement of PGE2 levels. For NO, incubations were continued overnight. Supernatant media was collected for measurement of NO levels after 16 hours of stimulation. PGE2 levels were measured using assay kits from Assay Designs, (Ann Arbor, Mich.) and NO levels were measured using assay kits from Cayman Chemicals (Ann Harbor, Mich.).
as §3

Test [3] relates to LPS-mediated RANTES production in THP-1 cells. Briefly: LPS-mediated RANTES production in THP-1 cells. As to conditions: Homo sapiens; for inhibition at 12.5 µM: 12.5 μM test compound, THP-1 cells, LPS 1 μg/ml, NI = no inhibition. The protocol: as §1, §2, §3
The target in test [4] is T1, PPARγ (Homo sapiens, UniProt P37231).
T1 sequence (P37231 1-505): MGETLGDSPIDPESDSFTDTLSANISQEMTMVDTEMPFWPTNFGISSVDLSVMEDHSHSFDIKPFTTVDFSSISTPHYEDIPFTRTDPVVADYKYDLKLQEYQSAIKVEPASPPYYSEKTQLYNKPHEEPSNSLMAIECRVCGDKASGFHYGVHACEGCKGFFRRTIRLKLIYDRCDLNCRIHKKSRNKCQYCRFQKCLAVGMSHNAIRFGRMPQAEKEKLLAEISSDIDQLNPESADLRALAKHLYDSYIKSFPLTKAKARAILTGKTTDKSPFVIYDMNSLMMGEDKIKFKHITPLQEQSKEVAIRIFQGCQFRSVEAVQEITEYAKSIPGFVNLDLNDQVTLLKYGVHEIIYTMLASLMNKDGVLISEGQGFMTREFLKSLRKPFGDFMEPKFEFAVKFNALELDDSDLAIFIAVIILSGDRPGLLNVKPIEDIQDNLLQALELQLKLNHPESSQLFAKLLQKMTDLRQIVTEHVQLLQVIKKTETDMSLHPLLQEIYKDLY
As to the kind of experiment: PPARγ reporter assay (INDIGO Biosciences). Particulars: 20 h, read-out: PPARγ % rosiglitazone (500 nM), 12.5 μM test compound; luciferase reporter cells, 20 hours; activity compared to rosiglitazone. How it is done: (§5) The functional effect of THIAA derivatives on PPARα and PPARγ activity was evaluated using a PPAR reporter assay (INDIGO Biosciences, Pa.). This assay utilizes non-human mammalian cells engineered to provide constitutive high level expression of PPARα, or PPARγ and containing a luciferase report gene specific to the appropriate PPAR. Following activation by agonist binding, PPAR induces expression of the luciferase reporter gene. Luciferase activity therefore provides a surrogate for measuring PPAR activity in agonist-treated cells.
(§6) 0.1% DMSO was used as a solvent control for each assay. Plates were incubated for 20 hours in a humidified incubator at 37° C. and 5% CO2. After incubation, the cell medium was discarded and the cells were treated with 100 μL of luciferase detection reagent for 15 minutes. Plates were analyzed using a luminometer (Victor2, Perkin Elmer). Average relative light unit (RLU) and standard deviation were measured.
Background: Reporter assays use an easily measured gene product as a stand-in for the process of interest.

Test [5] relates to LPS-mediated prostaglandin E2 (PGE2) production in RAW264.7 cells. Briefly: LPS-mediated PGE2 production in RAW264.7 murine macrophage model. As to conditions: Mus musculus, RAW264.7, 6 h, LPS 1 μg/ml, NI = no inhibition; for inhibition at 12.5 µM: 12.5 μM test compound. How it is done: as §1, §4, §3
Test [6] relates to LPS-mediated MIP-1α production in THP-1 cells. Briefly: LPS-mediated MIP-1α production in THP-1 cells. Particulars: Homo sapiens; for inhibition at 12.5 µM: 12.5 μM test compound, THP-1 cells, LPS 1 μg/ml, NI = no inhibition. How it is done:
as §1, §2, §3

The test system of test [7] is LPS-mediated inflammatory mediators in RAW264.7 and THP-1 cells. As to the kind of experiment: Mean inhibition across all six inflammatory mediators. As to conditions: for inhibition at 12.5 µM: 12.5 μM test compound. The protocol: as §4, §2, §3
Mean inhibition across all six inflammatory mediators was calculated for each of the THIAA derivatives.

Test [8] relates to LPS-mediated MCP-1 production in THP-1 cells. As to the kind of experiment: LPS-mediated MCP-1 production in THP-1 cells. As to conditions: Homo sapiens; for inhibition at 12.5 µM: 12.5 μM test compound, THP-1 cells, LPS 1 μg/ml, NI = no inhibition. The protocol:
as §1, §2, §3

Test [9] deals with T2, PPARα (Homo sapiens, UniProt Q07869).
T2 sequence (Q07869 1-468): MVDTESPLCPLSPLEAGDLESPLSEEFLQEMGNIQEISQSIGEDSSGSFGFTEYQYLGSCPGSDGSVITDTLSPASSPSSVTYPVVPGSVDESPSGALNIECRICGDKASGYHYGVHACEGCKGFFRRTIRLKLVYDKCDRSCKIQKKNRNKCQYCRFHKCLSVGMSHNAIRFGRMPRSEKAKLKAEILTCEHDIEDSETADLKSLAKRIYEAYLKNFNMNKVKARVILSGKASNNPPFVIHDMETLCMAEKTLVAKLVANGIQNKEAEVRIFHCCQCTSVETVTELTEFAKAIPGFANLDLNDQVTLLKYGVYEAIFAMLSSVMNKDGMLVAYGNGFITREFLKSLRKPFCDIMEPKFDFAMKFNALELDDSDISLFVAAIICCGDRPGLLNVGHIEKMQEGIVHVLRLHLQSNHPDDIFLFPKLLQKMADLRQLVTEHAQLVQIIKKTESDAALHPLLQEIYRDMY
Briefly: PPARα reporter assay (INDIGO Biosciences). Particulars: luciferase reporter cells, 20 hours; for Emax at 12.5 µM / PPARα % GW590735 (20.6 nM): 12.5 μM test compound, activity compared to GW590735; for Emax at 12.5 µM: read-out: PPARα % GW590735 (20.6 nM). The protocol:
as §5, §6

Each structure is given as a SMILES string.

In general, inhibition refers to the share of the control response that was lost under treatment. Low readings indicate little suppression, high ones strong suppression. Turning to `CC(C)CCC(=O)[C@@]1(O)C(=O)/C(=C(\CC(C)C)NCCO)C(=O)[C@@H]1CCC(C)C` [KDT0017, (4R,5R)-4-hydroxy-2-{1[(2-hydroxyethyl)amino]-3-methylbutylidene}-5-(3-methylbutyl)-4-(4-methylpentanoyl)cyclopentane-1,3-dione], the inhibition at 12.5 µM in [1] was 50%; in [2] it was less than 20%; in test [3], less than 0%; in [5], less than 0%; in test [6] it was less than 0%; in [7], 23%. This compound also showed an inhibition at 12.5 µM in [8] of 80%. The Emax at 12.5 µM in [4] and in [9] was less than 5% throughout.

Regarding `CCCCCCCCCC(=O)O[C@]1(C(=O)CCC(C)C)C(O)=C(C(=O)C(C)C)C(=O)[C@@H]1CCC(C)C` [KDT0036, (1S,5R)-2-hydroxy-5-(3-methylbutyl)-1-(4-methylpentanoyl)-3-(2-methylpropanoyl)-4-oxocyclopent-2-en-1-yl decanoate], the inhibition at 12.5 µM was determined as 83% in test [1]; 97% in [2]; 88% in [3]; 45% in test [5]; 25% in [6]; 73% in test [7]. For the same compound, the inhibition at 12.5 µM in test [8] is 98%. For the same compound, the figures for the Emax at 12.5 µM in [4] and in test [9] were not below 5% and less than 5%, respectively. In addition, the “PPARα % GW590735 (20.6 nM)” value in test [9] is given as “no effect”.

On to `CC(C)CCC(=O)[C@@]1(OC(=O)OCC(C)C)C(O)=C(C(=O)C(C)C)C(=O)[C@@H]1CCC(C)C` [KDT0037, (1S,5R)-2-hydroxy-5-(3-methylbutyl)-1-(4-methylpentanoyl)-3-(2-methylpropanoyl)-4-oxocyclopent-2-en-1-yl 2-methylpropyl carbonate], for which the inhibition at 12.5 µM in test [1] turned out to be 61%; in [3], 83%; in test [6], 22%; in test [7] it was 72%; in [8] it was 98%. Besides, in test [9], the “PPARα % GW590735 (20.6 nM)” value was “no effect”. The Emax at 12.5 µM in [9] is less than 5%.

`CN/C(CC(C)C)=C1\C(=O)[C@H](CCC(C)C)[C@@](O)(C(=O)CCC(C)C)C1=O` [KDT0020, (4R,5R)-4-hydroxy-5-(3-methylbutyl)-2-[3-methyl-1-(methylamino)butylidene]-4-(4-methylpentanoyl)cyclopentane-1,3-dione]: the inhibition at 12.5 µM in [1] was 70%; in [2] it was less than 20%; in test [3], 35%; in test [5], 75%; in test [6] it was less than 20%; in test [7] it was 46%. The compound also returned an inhibition at 12.5 µM in [8] of 82%. Further, the Emax at 12.5 µM in test [4] and in test [9] was less than 5% throughout.

Regarding `CN(CCOc1ccc(CC2SC(=O)NC2=O)cc1)c1ccccn1` (stereo not shown) [Rosiglitazone, reference compound], the inhibition at 10 µM is less than 0% in test [1] (THP-1); 6% in test [2] (10 μM (rosiglitazone)); 24% in test [3] (THP-1); less than 0% in test [5] (10 μM (rosiglitazone)); less than 0% in test [6] (THP-1); less than 20% in test [7] (10 μM (rosiglitazone)). In [8] (THP-1), this compound yielded an inhibition at 10 µM of less than 0%.

In the case of `CC(C)CCC(=O)[C@@]1(OC(=O)C(C)(C)C)C(O)=C(C(=O)CC(C)C)C(=O)[C@@H]1CCC(C)C` [KDT0033, (1S,5R)-2-hydroxy-3-(3-methylbutanoyl)-5-(3-methylbutyl)-1-(4-methylpentanoyl)-4-oxocyclopent-2-en-1-yl 2,2-dimethylpropanoate], the inhibition at 12.5 µM in test [1] is 87%; in test [2], more than 50%; in [3], 97%; in test [6] it was 95%; in test [7], approximately 90%; in test [8], 100%. For the same compound, the Emax at 12.5 µM in [4] was not below 5%; in [9], less than 5%. The “PPARα % GW590735 (20.6 nM)” value in test [9] was “no effect”.

Take `Cc1nc(-c2ccc(C(F)(F)F)cc2)sc1C(=O)NCc1ccc(OC(C)(C)C(=O)O)cc1` [GW590735, reference compound]: the “PPARα activity (positive control)” value in test [9] (GW590735 21-5000 nM) is listed as “increased the activity”.

For the compound `CC(C)CCC(=O)[C@@]1(OC(=O)CC(C)(C)C)C(O)=C(C(=O)CC(C)C)C(=O)[C@@H]1CCC(C)C` [KDT0034, (1S,5R)-2-hydroxy-3-(3-methylbutanoyl)-5-(3-methylbutyl)-1-(4-methylpentanoyl)-4-oxocyclopent-2-en-1-yl 3,3-dimethylbutanoate], the inhibition at 12.5 µM in [1] was 84%; in test [2], more than 50%; in test [3], 98%; in test [6], 94%; in test [7], approximately 90%; in test [8] it was 100%. In addition, the Emax at 12.5 µM turned out to be 5% in [4] and 9% in test [9]. Besides, in [9], the “PPARα % GW590735 (20.6 nM)” value was “dual PPARα and PPARγ agonists”.
